The values that follow come from ChEMBL document CHEMBL2163233, “3-Oxoisoindoline-1-carboxamides: potent, state-dependent blockers of voltage-gated sodium channel Na(V)1.7 with efficacy in rat pain models” (J Med Chem, 2012).

The nature of one data set: cells. The conditions noted are these: Homo sapiens, HEK293.
The nature of data set [1]: in vitro. The settings on record: rat, microsomes, CLH.
Data set [2] in a line: in vitro. The settings on record: human, microsomes, CLH.
Data set [3] can be described thus: in vivo. The conditions noted are these: Sprague-Dawley, rat, iv, 3 umol/kg.
Data set [4] in a line: in vivo. The settings on record: Sprague-Dawley, rat, iv, 3 umol/kg. This is another data set of the same source.
Data set [5] is described as follows: in vivo. The settings on record: Sprague-Dawley, rat, po, 10 umol/kg.
Data set [6] can be described thus: in vivo. The settings on record: Sprague-Dawley, rat, iv, 3 umol/kg. This is another data set of the same source.
The nature of data set [7]: in vivo. The settings on record: Sprague-Dawley, rat, po, 10 umol/kg. This is another data set of the same source.
A short description of data set [8]: in vitro. The settings on record: Sprague-Dawley, rat, plasma.
A short description of data set [9]: in vivo. The conditions noted are these: Sprague-Dawley, rat, po, 10 umol/kg. This is another data set of the same source.
Data set [10] can be described thus: in vivo. The conditions noted are these: Sprague-Dawley, rat, po, 10 umol/kg. The source holds these as a separate data set.
A short description of data set [11]: in vitro. The settings on record: human, Caco-2.
Data set [12] in a line: in vivo. The settings on record: Sprague-Dawley, rat, po, 10 umol/kg. This is another data set of the same source.
Data set [13] is described as follows: in vivo. The settings on record: Sprague-Dawley, rat, iv, 3 umol/kg. The source holds these as a separate data set.

Values after ≈ are worked out from the molar mass of the structure shown.

On to `CCCCNc1ccc(C(=O)OCCN(C)C)cc1` [TETRACAINE], for which the half-maximal inhibitory concentration (IC50) (usually the midpoint of a concentration-inhibition curve) in the data set “cells” came to 33 µM.
On to `CN(C)CCC=C1c2ccccc2CCc2ccccc21` [AMITRIPTYLINE], for which the concentration for half-maximal inhibition (IC50) in “cells” is 12 µM.
Regarding `O=C(NCc1ccc(OC(F)(F)F)cc1)C1c2ccccc2C(=O)N1C[C@@H]1CCCO1` (stereo partly drawn), the microsomal CLint (as a rule, the rate of metabolic loss divided by the concentration) in the data set “in vitro [1]” amounted to 28 µL/min/mg; in “in vitro [2]”, 50 µL/min/mg. Further, the solubility (in general, the dissolved amount per volume that the medium holds) at 4 h in the data set “physchem” worked out at 28 µM (≈ 12.2 µg/mL).
On to `O=C(NCc1ccc(OC(F)(F)F)cc1)C1c2ccccc2C(=O)N1CCc1ccncc1` (stereo not drawn), for which the intrinsic metabolic clearance (microsomal CLint) in the data set “in vitro [1]” stood at 20 µL/min/mg; in “in vitro [2]”, 170 µL/min/mg. In the data set “physchem”, this compound had a solubility at 4 h of 61 µM (≈ 27.8 µg/mL).
In the same order, the values of `O=C(NCc1ccc(OC(F)(F)F)cc1)C1c2cccc(O)c2C(=O)N1CCc1ccccn1` (stereo not drawn) are 10 µL/min/mg, 59 µL/min/mg and 15 µM (≈ 7.07 µg/mL).
With `O=C(NCc1ccc(Br)cc1)C1c2ccccc2C(=O)N1CCc1ccccn1` (stereo not drawn), the results for the microsomal CLint in the data set “in vitro [1]” and in “in vitro [2]” were 31 µL/min/mg and 120 µL/min/mg, respectively. Further, the concentration in solution in “physchem” (solubility at 4 h) came to 57 µM (≈ 25.7 µg/mL).
Regarding `O=C(NCc1ccc(OC(F)F)nc1)C1c2ccccc2C(=O)N1CCc1ccccn1` (stereo not drawn), the figures for the intrinsic metabolic clearance (microsomal CLint) in “in vitro [1]” and in “in vitro [2]” were < 10 µL/min/mg and 33 µL/min/mg, respectively. This compound registered a solubility at 4 h in “physchem” of 32 µM (≈ 14 µg/mL).
As to `O=C(NCc1ccc(OC(F)(F)F)cc1)C1c2ccccc2C(=O)N1CC1CC(F)(F)C1` (stereo not drawn), the microsomal CLint in the data set “in vitro [1]” was 38 µL/min/mg; in “in vitro [2]”, 25 µL/min/mg. Besides, in “physchem”, the solubility at 4 h was < 1 µM.
For `O=C(NCc1ccc(F)c(C(F)(F)F)c1)C1c2ccccc2C(=O)N1CCc1ncc(F)cn1` (stereo not drawn), the Vd (commonly a proportionality between amount in the body and measured concentration, not a real space) in “in vivo [3]” stood at 0.9 L/kg. Moreover, the AUC (usually concentration integrated over time) stood at 1.6 µM·h in the data set “in vivo [4]” and 0.2 µM·h in “in vivo [7]”. The intrinsic clearance (microsomal CLint) in the data set “in vitro [1]” and in “in vitro [2]” was < 10 µL/min/mg each time. The results for the half-life in the data set “in vivo [5]” and in the data set “in vivo [13]” were 72 min and 24 min, respectively. The clearance (commonly a measure of how efficiently the substance is removed, as volume per time) in the data set “in vivo [6]” was determined as 32 mL/min/kg. Also, the fraction unbound (usually free concentration divided by total concentration) in “in vitro [8]” was 0.13. Moreover, the highest concentration (Cmax) (as a rule, the peak of the concentration-time curve) in the data set “in vivo [9]” amounted to 100 nM. Further, in the data set “in vivo [10]”, the time of peak concentration (Tmax) (in general, the time from dosing to the highest level) stood at 18 min. In the data set “physchem”, the concentration in solution (solubility at 4 h) came to 14 µM (≈ 6.67 µg/mL). In addition, the IC50 in “cells” stood at 33 µM. Besides, the apparent permeability (Papp) (usually the rate of passage across a membrane or cell layer, normalised by area and donor concentration) in the data set “in vitro [11]” came to 39 ×10⁻⁶ cm/s. Further, the bioavailability (commonly the share of a dose that reaches the circulation, judged against a reference dose that is usually intravenous) in the data set “in vivo [12]” was found to be 4%.
In the case of `CC(C)(Cc1ccccn1)N1C(=O)c2ccccc2C1C(=O)NCc1ccc(OC(F)(F)F)cc1` (stereo not drawn), the microsomal CLint stood at 67 µL/min/mg in the data set “in vitro [1]” and 340 µL/min/mg in “in vitro [2]”. Moreover, in “physchem”, the concentration in solution (solubility at 4 h) was 13 µM (≈ 6.29 µg/mL).
In the case of `O=C(NCc1ccc(OC(F)(F)F)cc1)C1c2ccccc2C(=O)N1CCN1CCOCC1` (stereo not drawn), the intrinsic clearance (microsomal CLint) in the data set “in vitro [1]” is < 10 µL/min/mg; in “in vitro [2]” it was 49 µL/min/mg. In the data set “physchem”, this compound yielded a solubility at 4 h of 200 µM (≈ 92.7 µg/mL).
As to `O=C(NCc1ccc(OC(F)(F)F)cc1)C1c2ccccc2C(=O)N1CCc1ncccn1` (stereo not drawn), the microsomal CLint in “in vitro [1]” was < 10 µL/min/mg; in “in vitro [2]”, 33 µL/min/mg. In addition, the solubility at 4 h in the data set “physchem” was determined as 310 µM (≈ 141 µg/mL).
For the compound `Cc1cccc2c1C(C(=O)NCc1ccc(OC(F)(F)F)cc1)N(CCc1ccccn1)C2=O` (stereo not drawn), the figures for the microsomal CLint in the data set “in vitro [1]” and in the data set “in vitro [2]” were 59 µL/min/mg and 190 µL/min/mg, respectively. The concentration in solution in the data set “physchem” (solubility at 4 h) was 1 µM (≈ 0.469 µg/mL).
In the same order, the values of `N#CCCN1C(=O)c2ccccc2C1C(=O)NCc1ccc(OC(F)(F)F)cc1` (stereo not drawn) are 16 µL/min/mg, 11 µL/min/mg and 45 µM (≈ 18.2 µg/mL).
As for `O=C(NCc1ccc(OC(F)(F)F)cc1)C1c2cccc(F)c2C(=O)N1CCc1ccccn1` (stereo not drawn), the intrinsic clearance (microsomal CLint) in “in vitro [1]” was 16 µL/min/mg; in “in vitro [2]”, 170 µL/min/mg. This compound came in with a solubility at 4 h in the data set “physchem” of 26 µM (≈ 12.3 µg/mL).
Take `O=C(NCc1ccc(OC(F)(F)F)cc1)C1c2c(O)cccc2C(=O)N1CCc1ccccn1` (stereo not drawn): the figures for the microsomal CLint in “in vitro [1]” and in “in vitro [2]” were 23 µL/min/mg and 26 µL/min/mg, respectively. The solubility at 4 h in “physchem” is < 1 µM.
`O=C(NCc1cccc(OC(F)(F)F)c1)C1c2ccccc2C(=O)N1CCc1ncc(F)cn1` (stereo not drawn) returned a Vd in “in vivo [3]” of 0.7 L/kg. Moreover, the AUC in the data set “in vivo [4]” was determined as 2.1 µM·h; in the data set “in vivo [7]”, 0.4 µM·h. The microsomal CLint stood at 28 µL/min/mg in the data set “in vitro [1]” and 180 µL/min/mg in the data set “in vitro [2]”. In addition, the half-life (in general, how long it takes for the measured level to halve) in the data set “in vivo [5]” was 486 min; in “in vivo [13]”, 24 min. The clearance in “in vivo [6]” came out at 29 mL/min/kg. Besides, in “in vitro [8]”, the fraction unbound came to 0.18. Besides, the Cmax in “in vivo [9]” came to 90 nM. Further, the time of peak concentration (Tmax) in the data set “in vivo [10]” is 24 min. Further, in the data set “physchem”, the concentration in solution (solubility at 4 h) came to 61 µM (≈ 28.9 µg/mL). In addition, the apparent permeability coefficient (Papp) in “in vitro [11]” was 50 ×10⁻⁶ cm/s. The same compound returned a bioavailability in “in vivo [12]” of 6%.
On to `O=C(NCc1ccc(OC(F)(F)F)cc1)C1c2ccccc2C(=O)N1CC(F)(F)c1ccccn1` (stereo not drawn), for which the microsomal CLint in “in vitro [1]” was 30 µL/min/mg; in the data set “in vitro [2]”, 57 µL/min/mg. Moreover, the concentration in solution in “physchem” (solubility at 4 h) came to 2 µM (≈ 0.983 µg/mL).
Take `CC(Cc1ccccn1)N1C(=O)c2ccccc2C1C(=O)NCc1ccc(OC(F)(F)F)cc1` (stereo not drawn): the microsomal CLint is < 10 µL/min/mg in the data set “in vitro [1]” and 82 µL/min/mg in the data set “in vitro [2]”. Also, the solubility at 4 h in “physchem” came out at 28 µM (≈ 13.1 µg/mL).
Turning to `CC(C)(C)OC(=O)N1CC(N2C(=O)c3ccccc3C2C(=O)NCc2ccc(OC(F)(F)F)cc2)C1` (stereo not drawn), the results for the intrinsic clearance (microsomal CLint) in the data set “in vitro [1]” and in “in vitro [2]” were < 10 µL/min/mg and 43 µL/min/mg, respectively. Besides, the solubility at 4 h in “physchem” was determined as 30 µM (≈ 15.2 µg/mL).
In the same order, the values of `O=C(NCc1ccc(OC(F)(F)F)cc1)C1c2ccccc2C(=O)N1C1CC(F)(F)C1` (stereo not drawn) are < 10 µL/min/mg, 15 µL/min/mg and 4 µM (≈ 1.76 µg/mL).
As to `N#C[C@H]1CC[C@H](N2C(=O)c3ccccc3C2C(=O)NCc2ccc(OC(F)(F)F)cc2)CC1` (stereo partly drawn), the values for the microsomal CLint in “in vitro [1]” and in the data set “in vitro [2]” were 11 µL/min/mg and < 10 µL/min/mg, respectively. The compound further displayed a solubility at 4 h in “physchem” of 200 µM (≈ 91.5 µg/mL).
With `O=C(NCc1ccc(CC(F)(F)F)cc1)C1c2ccccc2C(=O)N1CCc1ccccn1` (stereo not drawn), the values for the intrinsic metabolic clearance (microsomal CLint) in “in vitro [1]” and in the data set “in vitro [2]” were 42 µL/min/mg and 190 µL/min/mg, respectively. Besides, in the data set “physchem”, the concentration in solution (solubility at 4 h) was 120 µM (≈ 54.4 µg/mL).
The matching figures for `COc1cccc2c1C(=O)N(CCc1ccccn1)C2C(=O)NCc1ccc(OC(F)(F)F)cc1` (stereo not drawn): < 10 µL/min/mg, 50 µL/min/mg and 6 µM (≈ 2.91 µg/mL).
Regarding `O=C(NCc1ccc(OC(F)(F)F)cc1)C1c2ccccc2C(=O)N1C1CCC(F)(F)CC1` (single isomer, unassigned), in “cells”, the IC50 is > 10 µM.
On to `O=C(NCc1ccc(OC(F)(F)F)cc1)C1c2ccccc2C(=O)N1CCc1ncc(F)cn1` (stereo not drawn), for which the volume of distribution (Vd) in the data set “in vivo [3]” is 1.1 L/kg. Moreover, the AUC in “in vivo [4]” turned out to be 1.4 µM·h; in the data set “in vivo [7]”, 2.1 µM·h. Moreover, the microsomal CLint was < 10 µL/min/mg in the data set “in vitro [1]” and 53 µL/min/mg in “in vitro [2]”. The half-life was 138 min in the data set “in vivo [5]” and 24 min in the data set “in vivo [13]”. The clearance in “in vivo [6]” was 37 mL/min/kg. The compound further came in with an unbound share (fraction unbound) in the data set “in vitro [8]” of 0.092. Also, the concentration in the data set “in vivo [9]” peaked (Cmax) at 800 nM. For the same compound, the time to peak (Tmax) in the data set “in vivo [10]” was 18 min. Moreover, the solubility at 4 h in “physchem” is 25 µM (≈ 11.9 µg/mL). Also, the bioavailability in “in vivo [12]” amounted to 44%.
For the compound `CC(C)(CN1C(=O)c2ccccc2C1C(=O)NCc1ccc(OC(F)(F)F)cc1)c1ccccn1` (stereo not drawn), the intrinsic clearance (microsomal CLint) is < 10 µL/min/mg in the data set “in vitro [1]” and 40 µL/min/mg in the data set “in vitro [2]”. The same compound gave a solubility at 4 h in the data set “physchem” of 6 µM (≈ 2.9 µg/mL).
